In brackets after ≈: the same amount, converted by molar mass.
Columns and labels:
Type in all cases: functional
Helicobacter pylori [1] = assay: Antibacterial activity against Helicobacter pylori NCTC-11637 after 5 days by serial dilution method
Helicobacter pylori [2] = assay: Antibacterial activity against Helicobacter pylori NCTC-11637 after 24 hrs; details: NCTC-11637, 24 h
Helicobacter pylori [3] = assay: Antibacterial activity against Helicobacter pylori NCTC-11637 assessed as zone of inhibition at 0.5 ug/disk; details: read-out: IZ
Helicobacter pylori [4] = assay: Antibacterial activity against Helicobacter pylori NCTC-11637 assessed as zone of inhibition at 500 ug/disk; details: read-out: IZ
Helicobacter pylori [5] = assay: Antibacterial activity against Helicobacter pylori assessed NCTC-11637 as zone of inhibition at 2 ug/disk; details: read-out: IZ
Helicobacter pylori [6] = assay: Antibacterial activity against Helicobacter pylori NCTC-11637 assessed as zone of inhibition at 10 ug/disk; details: read-out: IZ
Helicobacter pylori [7] = assay: Antibacterial activity against Helicobacter pylori assessed NCTC-11637 as zone of inhibition at 0.02 ug/disk; details: read-out: IZ
Helicobacter pylori [8] = assay: Antibacterial activity against Helicobacter pylori assessed NCTC-11637 as zone of inhibition at 0.01 ug/disk; details: read-out: IZ
[9] = Helicobacter pylori, 120 h, read-out: MBC

Row | MIC (Helicobacter pylori [2]) [µg/mL] | SMILES | MBC (Helicobacter pylori [1]; [9]) [µg/mL] | other results
1 | 1.25 (≈ 2.7 µM) | COc1cc(OC)c2c(c1)C(CCCCCCCCCC(CCC(C)=O)OC(C)=O)OC2=O (stereo not drawn) | 2.5 (≈ 5.4 µM) | zone of inhibition at 0.5 µg/disc (Helicobacter pylori [3]): 15 mm
2 | 0.5 (≈ 1.19 µM) | COc1cc(OC)c2c(c1)[C@@H](CCCCC[C@H]1CCC[C@]3(CC[C@@H](C)O3)O1)OC2=O | 1 (≈ 2.39 µM) | –
3 | > 100 | COc1cc(OC)c2ccn(CCCCCCCCCC(CCC(C)=O)OC(C)=O)c2c1 (stereo not drawn) | > 100 | –
4 | > 100 | COc1cc(OC)c2ccn(CCCCCCCCCCCCC(C)O)c2c1 (stereo not drawn) | > 100 | –
5 | 50 (≈ 129 µM) | COc1cc(OC)c2ccn(CCCCCCCCCCCCC(C)=O)c2c1 | 50 (≈ 129 µM) | –
6 | 10 (≈ 24.9 µM) | COc1cc(OC)c2ccn(CCCCCCCCCC(=O)CCC(C)=O)c2c1 | 20 (≈ 49.8 µM) | –
7 | 20 (≈ 53.5 µM) | COc1cc(OC)c2ccn(CCCC3CCCC4(CCCCO4)O3)c2c1 (stereo not drawn) | 40 (≈ 107 µM) | –
8 | 12.5 (≈ 30.7 µM) | COc1cc(OC)c2c(c1)C(CCCCCCCCCCCCC(C)O)OC2=O (stereo not drawn) | 50 (≈ 123 µM) | zone of inhibition at 500 µg/disc (Helicobacter pylori [4]): 15 mm
9 | 20 (≈ 47.8 µM) | COc1cc(OC)c2c(c1)[C@H](CCCCCC[C@H]1CC[C@]3(CC[C@H](C)O3)O1)OC2=O | 100 (≈ 239 µM) | –
10 | 0.3 (≈ 0.717 µM) | COc1cc(OC)c2c(c1)[C@@H](CCCCCC[C@H]1CC[C@@]3(CC[C@H](C)O3)O1)OC2=O | 0.3 (≈ 0.717 µM) | –
11 | 20 (≈ 47.8 µM) | COc1cc(OC)c2c(c1)[C@H](CCCCCC[C@H]1CC[C@@]3(CC[C@H](C)O3)O1)OC2=O | 100 (≈ 239 µM) | –
12 | 0.3 (≈ 0.717 µM) | COc1cc(OC)c2c(c1)[C@@H](CCCCCC[C@H]1CC[C@]3(CC[C@H](C)O3)O1)OC2=O | 0.3 (≈ 0.717 µM) | –
13 | 2.5 (≈ 5.97 µM) | COc1cc(OC)c2c(c1)C(CCCCCCCCCC(=O)CCC(C)=O)OC2=O (stereo not drawn) | 5 (≈ 11.9 µM) | zone of inhibition at 2 µg/disc (Helicobacter pylori [5]): 15 mm
14 | 10 (≈ 24.7 µM) | COc1cc(OC)c2c(c1)C(CCCCCCCCCCCCC(C)=O)OC2=O (stereo not drawn) | 10 (≈ 24.7 µM) | zone of inhibition at 10 µg/disc (Helicobacter pylori [6]): 15 mm
15 | 5 (≈ 15.1 µM) | COc1cc(OC)c2ccn(CCCCCCCCC(C)=O)c2c1 | 10 (≈ 30.2 µM) | –
16 | 0.125 (≈ 0.299 µM) | COc1cc(OC)c2c(c1)[C@@H](CCCCC[C@H]1CCC[C@]3(CC[C@H](C)O3)O1)OC2=O | 0.125 (≈ 0.299 µM) | –
17 | 0.02 (≈ 0.0478 µM) | COc1cc(OC)c2c(c1)C(CCCCCCC1CCC3(CCC(C)O3)O1)OC2=O (stereo in doubt) | – | MBC (Helicobacter pylori [1]): 0.2 µg/mL (≈ 0.478 µM)
18 | – | COc1cc(OC)c2c(c1)C(CCCCCCC1CCC3(CCC(C)O3)O1)OC2=O (stereo in doubt; 5) | – | zone of inhibition at 0.02 µg/disc (Helicobacter pylori [7]): 15 mm; MBC (Helicobacter pylori [1]): 0.02 µg/mL (≈ 0.0478 µM)
19 | 0.2 (≈ 0.494 µM) | COc1cc(O)cc2c1C(=O)OC2CCCCCC1CCCC2(CCC(C)O2)O1 (stereo not drawn) [SPIROLAXINE] | > 2 | zone of inhibition at 0.01 µg/disc (Helicobacter pylori [8]): 15 mm

Reference: ChEMBL document CHEMBL1150341, “Anti-Helicobacter pylori activity of derivatives of the phthalide-containing antibacterial agents spirolaxine methyl ether, CJ-12,954, CJ-13,013, CJ-13,102, CJ-13,104, CJ-13,108 and CJ-13,015” (2008)
